Data on 4 compounds can be found in ChEMBL document CHEMBL1141968, “A lead compound for the development of ABA 8'-hydroxylase inhibitors” (Bioorg Med Chem Lett, 2005).

The subject of one assay is Lactuca sativa. Nature of the assay: Effect on seed germination in lettuce (Lactuca sativa L.Cv Grand Rapids). It counts as functional, organism-based.
A further assay relates to Oryza sativa. Kind of assay: Effect on seed elongation in Rice (Oryza sativa L.Cv.Nipponbare). It counts as functional, organism-based.
Assay [1] has as its target T1, Abscisic acid 8'-hydroxylase 3 (Arabidopsis thaliana, UniProt Q9FH76).
T1 sequence (Q9FH76 whole entry): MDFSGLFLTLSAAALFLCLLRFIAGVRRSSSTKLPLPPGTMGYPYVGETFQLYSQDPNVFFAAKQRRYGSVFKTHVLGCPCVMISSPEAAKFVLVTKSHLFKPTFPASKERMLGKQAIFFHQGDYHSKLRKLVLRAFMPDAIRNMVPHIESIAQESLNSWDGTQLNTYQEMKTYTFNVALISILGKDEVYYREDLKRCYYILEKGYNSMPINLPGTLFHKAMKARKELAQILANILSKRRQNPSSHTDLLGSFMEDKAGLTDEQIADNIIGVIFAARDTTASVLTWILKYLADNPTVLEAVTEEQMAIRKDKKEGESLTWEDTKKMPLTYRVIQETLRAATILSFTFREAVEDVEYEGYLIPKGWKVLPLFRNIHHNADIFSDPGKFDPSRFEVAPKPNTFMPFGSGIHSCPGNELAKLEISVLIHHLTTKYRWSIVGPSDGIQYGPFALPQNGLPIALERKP
Nature of the assay: Inhibitory activity against recombinant CYP707A3 in Arabidopsis at 50 uM.

Assay [2] deals with T1, Abscisic acid 8'-hydroxylase 3. Kind of assay: Inhibitory activity against recombinant CYP707A3 in Arabidopsis.

As for `CC1=CC(=O)CC(C)(C)[C@@]1(O)/C=C/C(C)=C\C(=O)O` [(+)-ABSCISIC ACID], the IC50 in the assay on Lactuca sativa came out at 12000 nM; with Oryza sativa, 2000 nM.

In the case of `C[C@H]1CCCC(C)(C)[C@@]1(O)/C=C/C=C\C(=O)O` (racemic), the inhibition at 50 µM in assay [1] came to 90.9%. Moreover, the IC50 in assay [2] is 910 nM; with Lactuca sativa it was > 300000 nM; with Oryza sativa, > 300000 nM. For the same compound, the Ki in assay [2] amounted to 400 nM.

For `C[C@H]1CCC[C@](C)(C(F)F)[C@@]1(O)/C=C/C=C\C(=O)O` (racemic), in assay [1], the inhibition at 50 µM worked out at 94%. Further, the IC50 in assay [2] was 630 nM; in the assay with Lactuca sativa, 150000 nM; with Oryza sativa it was > 300000 nM. Besides, the Ki in assay [2] was determined as 410 nM.

For `CC1=CC(=O)C[C@](C)(C(F)F)[C@@]1(O)/C=C/C(C)=C\C(=O)O`, the Ki in assay [2] amounted to 170 nM.
